Laboratory results published in PubChem BioAssay AID1117348 (Cheminformatics & Chemogenomics Research Group (CCRG), …, 2015).
The source made the active and inactive calls. No rule for the calls is given here.

These molecules were tested on HeLa cell cycle, increased S-phase population (assay: HeLa S-phase population increase, dose response, cell-based, IC50 (AID 1117348)).
In the case of `Cc1ccc(S(=O)(=O)NC(=O)NN2CC3CCCC3C2)cc1` (stereo unspecified), the IC50 is reported as > 10 µM (inactive). For `Cc1cc(O)c2ccccc2c1O`, the IC50 was > 10 µM (inactive). `CC(=O)O[C@@]12CO[C@@H]1C[C@H](O)[C@@]1(C)C(=O)[C@H](O)C3=C(C)[C@@H](OC(=O)[C@H](O)[C@@H](NC(=O)OC(C)(C)C)c4ccccc4)C[C@@](O)([C@@H](OC(=O)c4ccccc4)[C@H]21)C3(C)C` was tested, and the IC50 was > 10 µM (inactive). With `CCCCC1C(=O)N(c2ccccc2)N(c2ccc(O)cc2)C1=O` (stereo unspecified) the IC50 was > 10 µM (inactive). In the case of `Cn1cnc([N+](=O)[O-])c1Sc1ncnc2nc[nH]c12`, the IC50 is reported as > 10 µM (inactive). For `CCCCOC(=O)c1ccc(N)cc1`, the IC50 was > 10 µM (inactive). In the case of `CC[C@]1(O)C[C@@H]2CN(CCc3c([nH]c4ccccc34)[C@@](C(=O)OC)(c3cc4c(cc3OC)N(C)[C@H]3[C@@](O)(C(=O)OC)[C@H](OC(C)=O)[C@]5(CC)C=CCN6CC[C@]43[C@@H]65)C2)C1`, the IC50 is reported as > 10 µM (inactive). In the case of `CCOc1ccc2nc3cc(N)ccc3c(N)c2c1`, the IC50 is reported as > 10 µM (inactive). In the case of `CCCCCCCCCCCCCCCC[N+](C)(C)Cc1ccccc1`, the IC50 is reported as > 10 µM (inactive). `CCCCCCCCCCCCNCCNCCNCC(=O)O` was tested, and the IC50 was > 10 µM (inactive). With `CCCCCCCCCCCC[N+](C)(C)Cc1ccccc1` the IC50 was > 10 µM (inactive). `Cc1cc(=O)c2c(O)c3c(O)cc(=O)c4c3c3c(cc(O)c1c23)C(C)(C)C=4O` was tested, and the IC50 was > 10 µM (inactive). In the case of `Fc1ccc(C(OCCN2CCN(CCCc3ccccc3)CC2)c2ccc(F)cc2)cc1`, the IC50 is reported as > 10 µM (inactive). `CCN(CCCCOC(=O)c1ccc(OC)c(OC)c1)C(C)Cc1ccc(OC)cc1` (stereo unspecified) was tested, and the IC50 was > 10 µM (inactive). `Cc1cc2c(C(C)C)c(O)c(O)c(C=O)c2c(O)c1-c1c(C)cc2c(C(C)C)c(O)c(O)c(C=O)c2c1O` was tested, and the IC50 was > 10 µM (inactive). `CCN(CC)CCNC(=O)c1c(C)[nH]c(/C=C2\C(=O)Nc3ccc(F)cc32)c1C` was tested, and the IC50 was > 10 µM (inactive). `Nc1ccc2cc3ccc(N)cc3nc2c1` was tested, and the IC50 was 3.44 µM. `CCCNCC(O)COc1ccccc1C(=O)CCc1ccccc1` (stereo unspecified) was tested, and the IC50 was > 10 µM (inactive). With `CCC(=O)c1ccc(O)cc1` the IC50 was > 10 µM (inactive). With `CC(=O)Nc1ccn(C2COC(COC(=O)c3ccccc3)O2)c(=O)n1` (stereo unspecified) the IC50 was 0.312 µM. In the case of `O=C(Nc1ccc([N+](=O)[O-])cc1Cl)c1cc(Cl)ccc1O`, the IC50 is reported as > 10 µM (inactive). `O=C1C2CC=CCC2C(=O)N1SC(Cl)(Cl)Cl` (stereo unspecified) was tested, and the IC50 was > 10 µM (inactive). With `CCCCC(CC)CN=C(N)NC(N)=NCCCCCCN=C(N)NC(N)=NCC(CC)CCCC` (stereo unspecified) the IC50 was > 10 µM (inactive). In the case of `CCc1oc2ccccc2c1C(=O)c1cc(I)c(O)c(I)c1`, the IC50 is reported as > 10 µM (inactive). For `O=C1C(I)=CC(=C(c2cc(I)c(O)c(I)c2)c2ccccc2C(=O)O)C=C1I`, the IC50 was > 10 µM (inactive). For `Cc1ccc(Nc2nccc(N(C)c3ccc4c(C)n(C)nc4c3)n2)cc1S(N)(=O)=O`, the IC50 was > 10 µM (inactive). `C=CC(=O)Nc1cc2c(Nc3ccc(F)c(Cl)c3)ncnc2cc1OCCCN1CCOCC1` was tested, and the IC50 was > 10 µM (inactive). For `NCCCC[C@H](N[C@@H](CCc1ccccc1)C(=O)O)C(=O)N1CCC[C@H]1C(=O)O`, the IC50 was > 10 µM (inactive). With `CC(C)=CCC/C(C)=C/CC/C(C)=C/C(=O)OCC(=O)[C@@]1(O)CC[C@H]2[C@@H]3CCC4=CC(=O)C=C[C@]4(C)[C@H]3[C@@H](O)C[C@@]21C` the IC50 was > 10 µM (inactive). With `Cc1cc(N)c2ccccc2[n+]1CCCCCCCCCC[n+]1c(C)cc(N)c2ccccc21` the IC50 was > 10 µM (inactive). For `COc1cc([C@@H]2c3cc4c(cc3[C@H](O)[C@H]3COC(=O)[C@H]23)OCO4)cc(OC)c1OC`, the IC50 was > 10 µM (inactive). In the case of `CCC(COC(=O)c1cc(OC)c(OC)c(OC)c1)(c1ccccc1)N(C)C` (stereo unspecified), the IC50 is reported as > 10 µM (inactive). With `O=[N+]([O-])c1ccc(Oc2ccc(N=C=S)cc2)cc1` the IC50 was > 10 µM (inactive). In the case of `CN(C)c1ccc2nc3ccc(=[N+](C)C)cc-3sc2c1`, the IC50 is reported as > 10 µM (inactive). For `C1CN(P2(N3CC3)=NP(N3CC3)(N3CC3)=NP(N3CC3)(N3CC3)=N2)CCO1` (stereo unspecified), the IC50 was > 10 µM (inactive). `CCN1/C(=C/C=C/c2sc3ccccc3[n+]2CC)Sc2ccccc21` was tested, and the IC50 was > 10 µM (inactive).
